Data on 16 molecules can be found in PubChem BioAssay AID248 (DTP/NCI, 2004).

For this assay, the system named is L1210 leukemia ip in BDF1 mice, survival T/C. The experiment in a line: NCI In Vivo Anticancer Drug Screen. Data for tumor model L1210 Leukemia (intraperitoneal) in B6D2F1 (BDF1) mice. The settings on record: endpoint: mean survival time, higher = longer survival. The essentials:
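Mice bearing the transplanted tumor received compound or vehicle. Survival of the treated group was divided by that of the vehicle-treated control group to give the ratio.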

[1] abbreviates: dose: 100.0 mg/kg/injection, schedule: Q01DX001 (ip), vehicle: saline with Tween-80.
[2] abbreviates: dose: 200.0 mg/kg/injection, schedule: Q01DX001 (ip), vehicle: saline with Tween-80.
Where [3] appears, read: dose: 100.0 mg/kg/injection, schedule: Q01DX009 (ip), vehicle: saline with Tween-80.
Setting [4] is: dose: 200.0 mg/kg/injection, schedule: Q01DX009 (ip), vehicle: saline with Tween-80.
The mark [5] stands for this setting: dose: 100.0 mg/kg/injection, schedule: Q01DX001 (ip), vehicle: saline.
The mark [6] stands for this setting: dose: 200.0 mg/kg/injection, schedule: Q01DX001 (ip), vehicle: saline.
[7] abbreviates: dose: 50.0 mg/kg/injection, schedule: Q01DX009 (ip), vehicle: saline.
Where [8] appears, read: dose: 100.0 mg/kg/injection, schedule: Q01DX009 (ip), vehicle: saline.
Where [9] appears, read: dose: 200.0 mg/kg/injection, schedule: Q01DX009 (ip), vehicle: saline.
Setting [10] is: dose: 100.0 mg/kg/injection, schedule: Q04DX003 (ip), vehicle: saline with Tween-80.
Where [11] appears, read: dose: 200.0 mg/kg/injection, schedule: Q04DX003 (ip), vehicle: saline with Tween-80.
The mark [12] stands for this setting: dose: 400.0 mg/kg/injection, schedule: Q01DX009 (ip), vehicle: saline with Tween-80.
Setting [13] is: dose: 400.0 mg/kg/injection, schedule: Q04DX003 (ip), vehicle: saline with Tween-80.
[14] abbreviates: dose: 100.0 mg/kg/injection, schedule: Q01DX001 (ip), vehicle: carboxymethylcellulose (CMC).
Setting [15] is: dose: 200.0 mg/kg/injection, schedule: Q01DX001 (ip), vehicle: carboxymethylcellulose (CMC).

Values joined by “and” are separate entries in the source; they are usually repeats but may differ in a detail not shown here. Equal entries are not always repeated. Toxic doses and inconclusive results are not listed.

Turning to `CCN(CC)C(=O)CN`, the T/C by setting is: (dose: 100.0 mg/kg/injection, schedule: Q04DX003 (ip), vehicle: saline) 103 % of control; (dose: 200.0 mg/kg/injection, schedule: Q04DX003 (ip), vehicle: saline) 100 % of control; (dose: 400.0 mg/kg/injection, schedule: Q04DX003 (ip), vehicle: saline) 103 % of control.
For the molecule `CCCC/C(C)=N/Nc1ccc([N+](=O)[O-])cc1[N+](=O)[O-]`, the T/C reads like this: (dose: 12.5 mg/kg/injection, schedule: Q04DX002 (ip), vehicle: saline with Tween-80) 98 % of control; (dose: 25.0 mg/kg/injection, schedule: Q04DX002 (ip), vehicle: saline with Tween-80) 106 % of control; (dose: 50.0 mg/kg/injection, schedule: Q04DX002 (ip), vehicle: saline with Tween-80) 98 % of control.
With `O=C1COc2ccc(Cl)cc2N1`, the T/C is 100 % of control (dose: 100.0 mg/kg/injection, schedule: Q01DX009 (ip), vehicle: Klucel (hydroxypropylcellulose) (HPC)); 97 % of control (dose: 200.0 mg/kg/injection, schedule: Q01DX009 (ip), vehicle: Klucel (hydroxypropylcellulose) (HPC)); 119 % of control (dose: 400.0 mg/kg/injection, schedule: Q01DX009 (ip), vehicle: Klucel (hydroxypropylcellulose) (HPC)).
On to `Cc1ccc(Cl)cc1NC(=O)CCc1ccccc1`, for which the T/C runs as follows: (dose: 100.0 mg/kg/injection, schedule: Q04DX002 (ip), vehicle: Klucel (hydroxypropylcellulose) (HPC)) 91 % of control; (dose: 200.0 mg/kg/injection, schedule: Q04DX002 (ip), vehicle: Klucel (hydroxypropylcellulose) (HPC)) 94 % of control; (dose: 400.0 mg/kg/injection, schedule: Q04DX002 (ip), vehicle: Klucel (hydroxypropylcellulose) (HPC)) 91 % of control.
As for `CCCCCCCCCCCC(CCCC)CCCC`, the T/C runs as follows: under setting [1], 93 % of control; under setting [2], 104 % of control; (dose: 400.0 mg/kg/injection, schedule: Q01DX001 (ip), vehicle: saline with Tween-80) 101 % of control.
As to `O=C(O)CSCCSCC(=O)O`, the T/C is, setting by setting: (dose: 12.5 mg/kg/injection, schedule: Q04DX002 (ip), vehicle: carboxymethylcellulose (CMC)) 95 % of control; (dose: 25.0 mg/kg/injection, schedule: Q04DX002 (ip), vehicle: carboxymethylcellulose (CMC)) 97 % of control; (dose: 50.0 mg/kg/injection, schedule: Q04DX002 (ip), vehicle: carboxymethylcellulose (CMC)) 98 % of control; under setting [3], 104 % of control; under setting [4], 94 % of control and 91 % of control.
As for `O=NN(CCCl)C(=O)NC1CCC(O)CC1` (stereo not given), the T/C is 121 % of control (dose: 6.25 mg/kg/injection, schedule: Q01DX001 (ip), vehicle: saline with Tween-80); 189 % of control (dose: 12.5 mg/kg/injection, schedule: Q01DX001 (ip), vehicle: saline with Tween-80); 172 % of control and 239 % of control (dose: 12.5 mg/kg/injection, schedule: Q01DX001 (ip), vehicle: saline); 384 % of control (dose: 13.0 mg/kg/injection, schedule: Q01DX001 (ip), vehicle: saline); 494 % of control (dose: 20.0 mg/kg/injection, schedule: Q01DX001 (ip), vehicle: saline); 211 % of control (dose: 25.0 mg/kg/injection, schedule: Q01DX001 (ip), vehicle: saline with Tween-80). Also, the T/C (dose: 25.0 mg/kg/injection, schedule: Q01DX001 (ip), vehicle: saline) was 198 % of control and 210 % of control and 253 % of control; the T/C (dose: 26.0 mg/kg/injection, schedule: Q01DX001 (ip), vehicle: saline) was 401 % of control; the T/C (dose: 30.0 mg/kg/injection, schedule: Q01DX001 (ip), vehicle: saline) is 494 % of control; the T/C (dose: 40.0 mg/kg/injection, schedule: Q01DX001 (ip), vehicle: saline) is 435 % of control; the T/C (dose: 44.0 mg/kg/injection, schedule: Q01DX001 (ip), vehicle: saline) was 293 % of control; the T/C (dose: 50.0 mg/kg/injection, schedule: Q01DX001 (ip), vehicle: saline with Tween-80) is 264 % of control. Also, the T/C is, setting by setting: (dose: 50.0 mg/kg/injection, schedule: Q01DX001 (ip), vehicle: saline) 252 % of control and 113 % of control and 176 % of control; (dose: 60.0 mg/kg/injection, schedule: Q01DX001 (ip), vehicle: saline) 240 % of control; under setting [1], 92 % of control; under setting [5], 105 % of control and 99 % of control and 110 % of control; under setting [2], 87 % of control; under setting [6], 103 % of control and 95 % of control and 106 % of control.
As to `CCNC(C)(C)C(=O)c1ccco1`, the T/C was 94 % of control under setting [7], 100 % of control under setting [8] and 94 % of control under setting [9].
In the case of `Cc1cc([N+](=O)[O-])c(Nc2ccc(F)cc2)c([N+](=O)[O-])c1`, the T/C is, setting by setting: under setting [3], 97 % of control; under setting [10], 105 % of control; under setting [4], 92 % of control; under setting [11], 97 % of control; under setting [12], 94 % of control; under setting [13], 100 % of control.
In the case of `C=CCN1C(=O)C(c2ccccc2)C2(CCN(C)CC2)C1=O` (stereo not given), the T/C runs as follows: (dose: 25.0 mg/kg/injection, schedule: Q01DX001 (ip), vehicle: Klucel (hydroxypropylcellulose) (HPC)) 108 % of control; (dose: 50.0 mg/kg/injection, schedule: Q01DX001 (ip), vehicle: Klucel (hydroxypropylcellulose) (HPC)) 108 % of control; (dose: 100.0 mg/kg/injection, schedule: Q01DX001 (ip), vehicle: Klucel (hydroxypropylcellulose) (HPC)) 98 % of control and 104 % of control.
As to `Clc1cccc(-c2nc3ccccc3c3ccccc23)c1`, the T/C runs as follows: under setting [3], 90 % of control; under setting [4], 100 % of control; under setting [12], 103 % of control.
Turning to `Nc1ccc(Cl)c(Cl)c1`, the T/C is 98 % of control (dose: 50.0 mg/kg/injection, schedule: Q01DX001 (ip), vehicle: carboxymethylcellulose (CMC)); 101 % of control (dose: 50.0 mg/kg/injection, schedule: Q01DX009 (ip), vehicle: alcohol); 92 % of control (dose: 50.0 mg/kg/injection, schedule: Q01DX009 (ip), vehicle: saline with Tween-80); 104 % of control (dose: 50.0 mg/kg/injection, schedule: Q04DX003 (ip), vehicle: saline with Tween-80); 93 % of control under setting [14]; 109 % of control (dose: 100.0 mg/kg/injection, schedule: Q01DX009 (ip), vehicle: alcohol). Also, the T/C by setting is: under setting [3], 94 % of control; (dose: 100.0 mg/kg/injection, schedule: Q04DX003 (ip), vehicle: alcohol) 114 % of control; under setting [10], 104 % of control; under setting [15], 95 % of control; (dose: 200.0 mg/kg/injection, schedule: Q01DX009 (ip), vehicle: alcohol) 90 % of control; under setting [4], 95 % of control. Besides, the T/C is 97 % of control (dose: 200.0 mg/kg/injection, schedule: Q04DX003 (ip), vehicle: alcohol) and 104 % of control under setting [11].
`CCCCc1ccc(C2=CC(=O)C(c3ccc(CCCC)cc3)=CC2=O)cc1`: the T/C is 98 % of control under setting [5]; 95 % of control under setting [6]; 97 % of control (dose: 400.0 mg/kg/injection, schedule: Q01DX001 (ip), vehicle: saline).
In the case of `Nc1ncc(CNc2ccc(C(=O)NC(CCC(=O)O)C(=O)O)cc2)c(N)n1` (stereo not given), the T/C is, setting by setting: under setting [14], 98 % of control; under setting [15], 96 % of control; (dose: 400.0 mg/kg/injection, schedule: Q01DX001 (ip), vehicle: carboxymethylcellulose (CMC)) 98 % of control.
Regarding `O=C1c2cccc([N+](=O)[O-])c2C(=O)C1c1ccccn1` (stereo not given), the T/C was 101 % of control under setting [10], 90 % of control under setting [11] and 101 % of control under setting [13].
Regarding `CCOC(=O)CNC(=O)C(CSC(c1ccccc1)(c1ccccc1)c1ccccc1)NC(c1ccccc1)(c1ccccc1)c1ccccc1` (stereo not given), the T/C under setting [7] was 89 % of control; the T/C under setting [8] is 103 % of control; the T/C under setting [9] is 92 % of control; the T/C (dose: 400.0 mg/kg/injection, schedule: Q01DX009 (ip), vehicle: saline) is 94 % of control.
